In patent publication US9114149B2, “[CU(thp)4]n[X]-n compounds for the treatment of a broad range of human solid tumors, including refractory tumors” (Universita Degli Studi Di Padova, priority 2011, dated 2015):
“And” between values parts separate entries of the source, which are not always exact repeats. Equal entries are not always repeated.

Experiments:
U1810 = assay: MTT cytotoxicity, U1810 (lung); type: cell-based, human; settings: MTT test, 72 hrs
Source text: (§1) The in vitro antitumor activity of CP had been deeply evaluated in several human cancer cell lines by in vitro cytotoxicity assays. CP cytotoxicity has been detected in a large panel of human cell lines derived from a wide variety of solid tumors, including refractory tumors. In Table 1, the cytotoxicity parameters IC50 (that is the median growth inhibitory concentrations calculated from dose-survival curves via MTT test) are tabulated.
(§2) Cell lines representative of lung (H157, U1810, U1285, Calu-1), pancreas (MIA PaCa-2, BxPC-3, AsPC-1, Capan-1), liver (Huh-7, Hep 3B, SK-Hep-1), oesophagus (OE33, OE21), oesophagus/gastric cardia (OE19), stomach (BGC-823, AGS), colon (HCT-116, T84, COLO 205), breast (MDA-MB-231, SK-BR-3), cervix (CaSki, C-33 A) ovarian (A2780, SK-OV-3, IGROV1), prostate (LnCaP, PC-3) cancers along with melanoma (MEWO, G361, C-32), neuroblastoma (SH-SY5Y, SK-N-AS, IMR-32) and osteosarcoma (U-2 OS, MG-63) have been treated with increasing concentration of CP for 72 hrs.

Calu-1 = assay: MTT cytotoxicity, Calu-1 (lung); type: cell-based, human; settings: MTT test, 72 hrs
Source text: as §1, §2

MIA PaCa-2 = assay: MTT cytotoxicity, MIA PaCa-2 (pancreas); type: cell-based, human; settings: MTT test, 72 hrs
Source text: as §1, §2

Capan-1 = assay: MTT cytotoxicity, Capan-1 (pancreas); type: cell-based, human; settings: MTT test, 72 hrs
Source text: as §1, §2

Hep 3B = assay: MTT cytotoxicity, Hep 3B (liver); type: cell-based, human; settings: MTT test, 72 hrs
Source text: as §1, §2

SK-Hep-1 = assay: MTT cytotoxicity, SK-Hep-1 (liver); type: cell-based, human; settings: MTT test, 72 hrs
Source text: as §1, §2

OE33 = assay: MTT cytotoxicity, OE33 (oesophagus); type: cell-based, human; settings: MTT test, 72 hrs
Source text: as §1, §2

OE19 = assay: MTT cytotoxicity, OE19 (oesophagus/gastric cardia); type: cell-based, human; settings: MTT test, 72 hrs
Source text: as §1, §2

AGS = assay: MTT cytotoxicity, AGS (stomach); type: cell-based, human; settings: MTT test, 72 hrs
Source text: as §1, §2

T84 = assay: MTT cytotoxicity, T84 (colon); type: cell-based, human; settings: MTT test, 72 hrs
Source text: as §1, §2

COLO 205 = assay: MTT cytotoxicity, COLO 205 (colon); type: cell-based, human; settings: MTT test, 72 hrs
Source text: as §1, §2

SK-N-AS = assay: MTT cytotoxicity, SK-N-AS (brain); type: cell-based, human; settings: MTT test, 72 hrs
C-32 = assay: MTT cytotoxicity, C-32 (skin); type: cell-based, human; settings: MTT test, 72 hrs
Source text: as §1, §2

CaSki = assay: MTT cytotoxicity, CaSki (cervix); type: cell-based, human; settings: MTT test, 72 hrs
Source text: as §1, §2

C-33 A = assay: MTT cytotoxicity, C-33 A (cervix); type: cell-based, human; settings: MTT test, 72 hrs
Source text: as §1, §2

A2780 = assay: MTT cytotoxicity, A2780 (ovary); type: cell-based, human; settings: MTT test, 72 hrs
Source text: as §1, §2

SK-OV-3 = assay: MTT cytotoxicity, SK-OV-3 (ovary); type: cell-based, human; settings: MTT test, 72 hrs
Source text: as §1, §2

IGROV1 = assay: MTT cytotoxicity, IGROV1 (ovary); type: cell-based, human; settings: MTT test, 72 hrs
Source text: as §1, §2

PC-3 = assay: MTT cytotoxicity, PC-3 (prostate); type: cell-based, human; settings: MTT test, 72 hrs
Source text: as §1, §2

[1] = test system: human ovarian adenocarcinoma cells sensitive (A2780); assay: Cross resistance MTT test, A2780 (CDDP sensitive); type: cell-based; settings: 72 h, probit analysis
[2] = test system: human osteosarcoma cells sensitive (U-2 OS); assay: Cross resistance MTT test, U-2 OS (CDDP sensitive); type: cell-based; settings: 72 h, probit analysis
[3] = test system: human lung (MRC-5) fibroblasts; assay: Cytotoxicity towards human non-tumor cells, MRC-5; type: cell-based; settings: MRC-5 human lung fibroblasts (non-tumor); MTT test, 72 hrs
[4] = test system: Lewis lung carcinoma (LLC); assay: Early-stage treatment of LLC-bearing mice; type: in vivo, C57BL mice; settings: for Average tumor weight (mean ± S.D.) / Inhibition of tumor growth: early-stage; for Average tumor weight (mean ± S.D.): day 15; for Inhibition of tumor growth: day 15, referred to control
Protocol: Body weight was measured every two days and was taken as a parameter of systemic toxicity. The X axis indicates the days after transplantation whereas the Y axis indicates the percentage of body weight changes. […] The error bars indicate the SD.
The antitumor efficacy of CP was evaluated in a model of solid tumor, the syngeneic murine Lewis Lung Carcinoma (also indicated as LLC). […] Body weight of tumor-bearing mice has been measured every two days simultaneously with antitumor analyses and was taken as a parameter of systemic toxicity.
LLC was implanted intramuscularly (i.m., 2×10^6 cells inoculum) into the right hind leg of 8-week old inbred C57BL mice (24±3 g body weight) and, after 24 h from tumor implantation, mice were randomly divided into five groups (8 animals per group, 10 controls). CP was dosed at 25, 35 and 50 mk/kg i.p. on days 3, 5, 7, 9, 11 and 13 after tumor implantation. […] At day 15, animals were sacrificed, and the inhibition of tumor growth was evaluated.

[5] = test system: Lewis lung carcinoma (LLC); assay: Advanced-stage treatment (1) of LLC-bearing mice; type: in vivo, C57BL mice; settings: for Average tumor weight (mean ± S.D.) / Inhibition of tumor growth: advanced-stage (1); for Average tumor weight (mean ± S.D.): day 15; for Inhibition of tumor growth: day 15, referred to control; for adverse effects / body weight changes during therapy: advanced-stage treatments (1) and (2), FIGS. 2 and 3
Protocol: Body weight was measured at day 1 and every two days from day 7 and was taken as a parameter of systemic toxicity. The X axis indicates the days after transplantation whereas the Y axis indicates the percentage of body weight changes. […] The error bars indicate the SD.
(§3) The in vivo antitumor activity of CP in LLC tumor model has been further investigated by means of other protocols, such as advanced-stage treatment (1), and advanced-stage treatment (2). For upstaged or advanced stage disease, LLC tumors were allowed to establish and grow to visible (advanced-stage treatment 1) and palpable (advanced-stage treatment 2) size before the start of chemotherapy. The results shown in Table 8 and 9, attested that CP was efficacious even at the lowest dose schedules.

[6] = test system: Lewis lung carcinoma (LLC); assay: Advanced-stage treatment (2) of LLC-bearing mice; type: in vivo, C57BL mice; settings: advanced-stage (2); for Average tumor weight (mean ± S.D.): day 15; for Inhibition of tumor growth: day 15, referred to control
Protocol: Body weight was measured at day 1 and every two days from day 9 and was taken as a parameter of systemic toxicity. The X axis indicates the days after transplantation whereas the Y axis indicates the percentage of body weight changes. […] The error bars indicate the SD.
The complete disappearance of primary tumors in these mice was confirmed by dissection on day 15.
as §3

C57BL mice = assay: Maximum Tolerated Dose in C57BL mice; settings: single ip administration, <20% weight loss and no animal death
[7] = 1.5 mg/kg ip days 3, 5, 7, 9, 11, 13
[8] = 1.5 mg/kg i.p. daily from day 7
[9] = 35 mg/kg ip days 3, 5, 7, 9, 11, 13
[10] = 50 mg/kg ip days 3, 5, 7, 9, 11, 13
[11] = 50 mg/kg ip days 9-11 then 30 mg/kg days 12-14

SMILES | IC50 (U1810) [nM] | IC50 (Calu-1) [µM] | IC50 (MIA PaCa-2) [µM] | IC50 (Capan-1) [µM] | IC50 (Hep 3B) [µM] | IC50 (SK-Hep-1) [µM] | IC50 (OE33) [µM] | IC50 (OE19) [µM] | IC50 (AGS) [µM] | IC50 (T84) [µM] | IC50 (COLO 205) [µM] | IC50 (SK-N-AS) [µM] | IC50 (C-32) [nM] | IC50 (CaSki) [µM] | IC50 (C-33 A) [µM] | IC50 (A2780) [nM] | IC50 (SK-OV-3) [nM] | IC50 (IGROV1) [µM] | IC50 (PC-3) [nM] | IC50 [1] [nM] | also measured
N.N.[Cl][Pt][Cl] [CDDP, cis-diamminodichloro platinum(II)] | 3240 ± 1920 | 9.65 ± 2.13 | 25.9 ± 2.75 | 9.81 ± 1.38 | 6.15 ± 1.48 | 27.1 ± 2.94 | 6.87 ± 1.06 | 7.45 ± 1.37 | 6.33 ± 1.79 | 7.67 ± 1.34 | 33.1 ± 2.68 | 18.1 ± 1.58 | 1060 ± 980 | 31.1 ± 2.97 | 7.42 ± 1.98 | 1250 ± 1010 | 3040 ± 950 | 6.01 ± 1.73 | 1570 ± 1130 | 2430 ± 1600 | IC50 [2]: 5.9 ± 1.4 µM; IC50 [3]: 19.2 ± 1.35 µM; body weight loss ([4]; early-stage LLC mice, 1.5 mg/kg, after the sixth administration (FIG. 1)): about 30%; Average tumor weight (mean ± S.D.) [4, 7]: 0.168 ± 0.10 g; Inhibition of tumor growth [4, 7]: 73.66%; Average tumor weight (mean ± S.D.) [5, 8]: 0.061 ± 0.03 g; Inhibition of tumor growth [5, 8]: 87.84%; adverse effects / body weight changes during therapy [5]: substantial weight loss; Average tumor weight (mean ± S.D.) ([6]; 1.5 mg/kg ip daily from day 9): 0.118 ± 0.10 g; Inhibition of tumor growth ([6]; 1.5 mg/kg ip daily from day 9, 1.5 mg/kg): 72% and 72.68%; MTD (Maximum Tolerated Dose) (C57BL mice): 4.8 mg/kg
F[P-](F)(F)(F)(F)F.OC[P+](CO)(CO)[Cu-3]([P+](CO)(CO)CO)([P+](CO)(CO)CO)[P+](CO)(CO)CO [CP, [Cu(thp)4][PF6]] | 760 ± 1020 | 0.91 ± 0.45 | 2.45 ± 0.97 | 2.43 ± 0.84 | 0.67 ± 0.47 | 0.86 ± 0.75 | 1.87 ± 0.59 | 1.66 ± 0.94 | 1.14 ± 0.78 | 0.24 ± 0.04 | 0.65 ± 0.03 | 0.94 ± 0.75 | 560 ± 430 | 3.16 ± 1.45 | 3.26 ± 1.57 | 990 ± 420 | 880 ± 430 | 0.91 ± 0.94 | 980 ± 970 | 1800 ± 400 | IC50 [2]: 3.1 ± 1.1 µM; IC50 [3]: 33 ± 1.76 µM; body weight loss compared with the non-treated group ([4]; early-stage LLC mice, even at the highest doses (FIG. 1)): no significant body weight loss; Average tumor weight (mean ± S.D.) ([4]; 25 mg/kg ip days 3, 5, 7, 9, 11, 13): 0.473 ± 0.12 g; Inhibition of tumor growth ([4]; 25 mg/kg ip days 3, 5, 7, 9, 11, 13, 25 mg/kg): 26% and 25.86%; Average tumor weight (mean ± S.D.) [4, 9]: 0.273 ± 0.04 g; Inhibition of tumor growth [4, 9]: 57.21%; Average tumor weight (mean ± S.D.) [4, 10]: 0.113 ± 0.04 g; Inhibition of tumor growth [4, 10]: 82.28%; Average tumor weight (mean ± S.D.) ([5]; 30 mg/kg i.p. daily from day 7): 0.088 ± 0.03 g; Inhibition of tumor growth ([5]; 30 mg/kg i.p. daily from day 7): 82.37%; Average tumor weight (mean ± S.D.) ([5]; 50 mg/kg i.p. daily from day 7): 0.071 ± 0.02 g; Inhibition of tumor growth ([5]; 50 mg/kg i.p. daily from day 7): 85.85%; adverse effects / body weight changes during therapy [5]: did not induce any adverse effects; Average tumor weight (mean ± S.D.) [6, 11]: 0.024 ± 0.03 g; Inhibition of tumor growth [6, 11]: 94.44%; tumor regression (in words) ([6]; 50 mg/kg loading then 30 mg/kg maintenance, after the sixth administration): quite complete tumor regression; MTD (Maximum Tolerated Dose) (C57BL mice): 25.6 mg/kg
